“And” between values parts separate entries of the source, which are not always exact repeats. Identical values can stand only once. Like-named read-outs stand apart in the source and are kept apart here.
Key:
[1] = system: HIV-1 pseudovirus bearing EnvJR-FL WT; test: organism not typed; assay type: cell-based; conditions: for Relative infectivity (%): JRFL WT
[2] = system: HIV-1 pseudovirus bearing clade B YU2 Env S375H; test: organism not typed; assay type: cell-based; conditions: for Relative infectivity (%): YU2 S375H
[3] = system: clade B YU2 Env LMSH on HEK293T cells; assay type: binding; conditions: temsavir 10 µM, listed as TMR
[4] = system: HIV-1 Env with Ile475; design: method as in PMID 28825711; conditions: Ile475 substitution; cited from earlier work
[5] = system: CRF01_AE 92TH023 Env WT on HEK293T cells; assay type: binding; conditions: 92TH023 WT; temsavir 10 µM; listed as TMR
[6] = target: T1, clade B YU2 Env WT on HEK293T cells (Human immunodeficiency virus type 1 group M subtype B, UniProt P35961); assay type: binding; conditions: temsavir 10 µM, listed as TMR
T1 construct: expressed in transfected cells; host or cells: HEK293T (pSVIIIenv co-transfected with a Tat expressor)

[7] = system: HIV-1 pseudovirus bearing clade B YU2 Env LM; test: organism not typed; assay type: cell-based; conditions: for Relative infectivity (%): YU2 LM
[8] = system: HIV-1 pseudovirus bearing CRF01_AE CM244 Env WT; test: organism not typed; assay type: cell-based; conditions: for Relative infectivity (%): CM244 WT
[9] = system: HIV-1 pseudovirus bearing clade B YU2 Env S375T; test: organism not typed; assay type: cell-based; conditions: for Relative infectivity (%): YU2 S375T
[10] = system: CRF01_AE 92TH023 Env LMHT on HEK293T cells; assay type: binding; conditions: 92TH023 LMHT; temsavir 10 µM; listed as TMR
[11] = system: HIV-1 pseudovirus bearing clade B YU2 Env D474N/M475I/R476K; assay type: cell-based
[12] = system: HIV-1 pseudovirus bearing CRF01_AE CM244 Env LMHS; test: organism not typed; assay type: cell-based; conditions: for Relative infectivity (%): CM244 LMHS
[13] = system: HIV-1 pseudovirus bearing EnvJR-FL S375T; test: organism not typed; assay type: cell-based; conditions: for Relative infectivity (%): JRFL S375T
[14] = system: HIV-1 pseudovirus bearing CRF01_AE CM244 Env LM; test: organism not typed; assay type: cell-based; conditions: for Relative infectivity (%): CM244 LM
[15] = system: HIV-1 pseudovirus bearing clade B YU2 Env WT; test: organism not typed; assay type: cell-based; conditions: for Relative infectivity (%): YU2 WT
[16] = system: CRF01_AE CM244 Env LM on HEK293T cells; assay type: binding; conditions: temsavir 10 µM, listed as TMR
[17] = target: T2, clade B YU2 Env S375T on HEK293T cells (Human immunodeficiency virus type 1 group M subtype B, UniProt P35961, S370T); assay type: binding; conditions: temsavir 10 µM, listed as TMR
T2 construct: expressed in transfected cells; host or cells: HEK293T (pSVIIIenv co-transfected with a Tat expressor)

[18] = system: HIV-1JR-FL Env S375H on HEK293T cells; assay type: binding; conditions: JRFL S375H; temsavir 10 µM; listed as TMR
[19] = system: clade B YU2 Env LM on HEK293T cells; assay type: binding; conditions: temsavir 10 µM, listed as TMR
[20] = system: HIV-1 pseudovirus bearing EnvJR-FL S375H; test: organism not typed; assay type: cell-based; conditions: for Relative infectivity (%): JRFL S375H
[21] = system: CRF01_AE 92TH023 Env LM on HEK293T cells; assay type: binding; conditions: 92TH023 LM; temsavir 10 µM; listed as TMR
[22] = system: HIV-1JR-FL Env S375W on HEK293T cells; assay type: binding; conditions: JRFL S375W; temsavir 10 µM; listed as TMR
[23] = system: CRF01_AE 92TH023 Env LMHS on HEK293T cells; assay type: binding; conditions: 92TH023 LMHS; temsavir 10 µM; listed as TMR
[24] = system: clade B YU2 Env LMST on HEK293T cells; assay type: binding; conditions: temsavir 10 µM, listed as TMR

In the case of `COc1cnc(-n2cnc(C)n2)c2[nH]cc(C(=O)C(=O)N3CCN(C(=O)c4ccccc4)CC3)c12` [Temsavir, temsavir], the IC50 ([1]; Cf2Th-CD4/CCR5) is reported as 0.36 nM, the “Relative infectivity (%)” value ([1]; Temsavir 0.1 nM) is reported as 88.4413% and 81.9041% and 67.8312% and the “Relative infectivity (%)” value ([1]; Temsavir 5 nM) is reported as 0.09027% and 0.782% and 0.1663%. The “Relative infectivity (%)” value ([1]; Temsavir 25 nM) was 0.07266% and 0.1285% and 0.09925% and 0.3863%, the “Relative infectivity (%)” value ([1]; Temsavir 100 nM) was 0.1307% and 0.3086% and 0.1992% and 0.5674% and the IC50 ([2]; Cf2Th-CD4/CCR5) was 22.9 nM. The “Relative infectivity (%)” value ([2]; Temsavir 1 nM) was 63.2919% and 87.0597% and 84.5852%, the “Relative infectivity (%)” value ([2]; Temsavir 5 nM) was 57.7086% and 71.798% and 64.2482% and the “Relative infectivity (%)” value ([2]; Temsavir 10 nM) was 66.6494% and 65.3275% and 50.1024%. For the same molecule, the “Relative infectivity (%)” value ([2]; Temsavir 50 nM) was 26.1516% and 30.7973% and 25.917%, the “Relative infectivity (%)” value ([2]; Temsavir 100 nM) was 13.7111% and 12.275% and 13.4865% and the “sCD4 binding (+TMR) - Fold over DMSO” value [3] was 1.199 and 1.141 and 1.081. For the same molecule, the “fold reduction in temsavir activity” value [4] was ~ 90 fold, the “sCD4 binding (+TMR) - Fold over DMSO” value [5] was 0.9655 and 0.9282 and 0.9905 and the “sCD4 binding (+TMR) - Fold over DMSO” value [6] was 0.4934 and 0.673 and 0.6222. For the same molecule, the IC50 ([7]; Cf2Th-CD4/CCR5) was 9.17 nM, the “Relative infectivity (%)” value ([7]; Temsavir 1 nM, Fig 2f) was 76.4591% and 76.4018% and 119.182% and the “Relative infectivity (%)” value ([7]; Temsavir 2 nM, Fig S1) was 74.57% and 102.72% and 96.57%. The “Relative infectivity (%)” value ([7]; Temsavir 5 nM, Fig 2f) was 65.3412% and 84.0034% and 74.4376%, the “Relative infectivity (%)” value ([7]; Temsavir 10 nM, Fig 2f) was 41.1017% and 43.3512% and 50.8185% and the “Relative infectivity (%)” value ([7]; Temsavir 10 nM, Fig S1) was 72.47% and 80.59% and 43.3%. For the same molecule, the “Relative infectivity (%)” value ([7]; Temsavir 50 nM, Fig 2f) was 13.0704% and 12.6708% and 13.2107%, the “Relative infectivity (%)” value ([7]; Temsavir 50 nM, Fig S1) was 31.31% and 45.33% and 30.59% and the “Relative infectivity (%)” value ([7]; Temsavir 100 nM, Fig 2f) was 5.153% and 3.308% and 7.353%. For the same molecule, the “Relative infectivity (%)” value ([7]; Temsavir 100 nM, Fig S1) was 8.15% and 12.22% and 6.99%, the “Relative infectivity (%)” value ([8]; Temsavir 1 nM) was 91.0915% and 114.42% and 104.549% and the “Relative infectivity (%)” value ([8]; Temsavir 5 nM) was 80.9718% and 103.03% and 93.7921%. The “Relative infectivity (%)” value ([8]; Temsavir 10 nM) was 79.7783% and 110.299% and 108.245%, the “Relative infectivity (%)” value ([8]; Temsavir 50 nM) was 78.0773% and 106.103% and 90.5088% and the IC50 ([8]; Cf2Th-CD4/CCR5) was over 50 nM. The IC50 ([9]; Cf2Th-CD4/CCR5) was 0.73 nM, the “Relative infectivity (%)” value ([9]; Temsavir 1 nM) was 32.779% and 22.5844% and 35.0676% and the “Relative infectivity (%)” value ([9]; Temsavir 5 nM) was 2.479% and 1.401% and 1.77%. For the same molecule, the “Relative infectivity (%)” value ([9]; Temsavir 10 nM) was 0.4727% and 0.2789% and 0.1619%, the “Relative infectivity (%)” value ([9]; Temsavir 50 nM) was 0.1346% and 0.1101% and 0.1511% and the “Relative infectivity (%)” value ([9]; Temsavir 100 nM) was 0.1098% and 0.1253% and 0.1727%. For the same molecule, the “sCD4 binding (+TMR) - Fold over DMSO” value [10] was 0.7044 and 0.6853 and 0.7442, the “Relative infectivity (%)” value ([11]; Temsavir 5 nM) was 61.12% and 58.84% and 77.63% and the “Relative infectivity (%)” value ([11]; Temsavir 100 nM) was 18.08% and 29.17% and 19.26%. For the same molecule, the “Relative infectivity (%)” value ([12]; Temsavir 5 nM) was 5.229% and 3.403% and 2.611%, the “Relative infectivity (%)” value ([12]; Temsavir 10 nM) was 1.16% and 4.177% and 2.605% and the “Relative infectivity (%)” value ([12]; Temsavir 50 nM) was 0.3118% and 0.2016% and 0.39%. The IC50 ([12]; Cf2Th-CD4/CCR5) was 0.7 nM, the IC50 ([13]; Cf2Th-CD4/CCR5) was 0.43 nM and the “Relative infectivity (%)” value ([13]; Temsavir 0.1 nM) was 69.2755% and 98.112% and 68.2496%. The “Relative infectivity (%)” value ([13]; Temsavir 5 nM) was 1.701% and 2.403% and 0.1043%, the “Relative infectivity (%)” value ([13]; Temsavir 25 nM) was 0.2129% and 0.1167% and 0.02715% and 9.3062% and the “Relative infectivity (%)” value ([13]; Temsavir 100 nM) was 0.02755% and 0.0119% and 0.01656% and 2.113%. For the same molecule, the “Relative infectivity (%)” value ([14]; Temsavir 1 nM) was 102.819% and 104.55% and 70.4862%, the “Relative infectivity (%)” value ([14]; Temsavir 10 nM) was 98.1419% and 107.4% and 59.1318% and the “Relative infectivity (%)” value ([14]; Temsavir 50 nM) was 106.175% and 96.9147% and 54.579%. The IC50 ([14]; Cf2Th-CD4/CCR5) was over 50 nM, the IC50 ([15]; Cf2Th-CD4/CCR5) was 0.68 nM and the “Relative infectivity (%)” value ([15]; Temsavir 1 nM, Fig 2f) was 27.4498% and 23.3742% and 28.1647%. For the same molecule, the “Relative infectivity (%)” value ([15]; Temsavir 2 nM, Fig S1) was 66.79% and 41.21% and 35.57%, the “Relative infectivity (%)” value ([15]; Temsavir 5 nM, Fig 2f) was 1.267% and 2.642% and 1.583% and the “Relative infectivity (%)” value ([15]; Temsavir 5 nM, Fig S1) was 6.29% and 2.61% and 2.85%. For the same molecule, the “Relative infectivity (%)” value ([15]; Temsavir 10 nM, Fig 2f) was 0.2419% and 0.2962% and 0.3923%, the “Relative infectivity (%)” value ([15]; Temsavir 10 nM, Fig S1) was 2.59% and 2.79% and 2.69% and the “Relative infectivity (%)” value ([15]; Temsavir 50 nM, Fig 2f) was 0.2461% and 0.2675% and 0.3334%. The “Relative infectivity (%)” value ([15]; Temsavir 50 nM, Fig S1) was 2.66% and 2.72% and 2.93%, the “Relative infectivity (%)” value ([15]; Temsavir 100 nM, Fig 2f) was 0.2542% and 0.2474% and 0.3435% and the “Relative infectivity (%)” value ([15]; Temsavir 100 nM, Fig S1) was 2.55% and 3.03% and 2.93%. For the same molecule, the “sCD4 binding (+TMR) - Fold over DMSO” value [16] was 1.043 and 1.054 and 0.9268, the “sCD4 binding (+TMR) - Fold over DMSO” value [17] was 0.6011 and 0.7082 and 0.7739 and the “sCD4 binding (+TMR) - Fold over DMSO” value [18] was 1.158 and 1.01 and 1.118. For the same molecule, the “sCD4 binding (+TMR) - Fold over DMSO” value [19] was 0.8112 and 0.8641 and 1.018, the IC50 ([20]; Cf2Th-CD4/CCR5) was over 100 nM and the “Relative infectivity (%)” value ([20]; Temsavir 0.1 nM) was 97.5172% and 99.7027% and 99.1558%. For the same molecule, the “Relative infectivity (%)” value ([20]; Temsavir 0.5 nM) was 94.7921% and 100.166% and 82.7419%, the “Relative infectivity (%)” value ([20]; Temsavir 1 nM) was 92.4628% and 111.302% and 80.2089% and the “Relative infectivity (%)” value ([20]; Temsavir 5 nM) was 89.7935% and 91.5252% and 60.6402%. For the same molecule, the “Relative infectivity (%)” value ([20]; Temsavir 25 nM) was 193.211% and 192.383% and 121.78% and 152.325%, the “Relative infectivity (%)” value ([20]; Temsavir 100 nM) was 67.6822% and 45.331% and 44.6004% and 67.6402% and the “sCD4 binding (+TMR) - Fold over DMSO” value [21] was 1.042 and 0.933 and 0.9789. For the same molecule, the “sCD4 binding (+TMR) - Fold over DMSO” value [22] was 1.038 and 0.9906 and 0.8801, the “sCD4 binding (+TMR) - Fold over DMSO” value [23] was 0.3873 and 0.484 and 0.5948 and the “sCD4 binding (+TMR) - Fold over DMSO” value [24] was 0.9452 and 1.1963 and 0.9128.

— PMC10593844, “Structure-function analyses reveal key molecular determinants of HIV-1 CRF01_AE resistance to the entry inhibitor temsavir” (Nature Communications, 2023)
